Laboratory results reported in patent publication US20150038430A1, “THERAPEUTIC PEPTIDOMIMETIC MACROCYCLES” (AILERON Therapeutics, Inc., priority 2008, published 2015).
Numbered stars: 1 amine (or outer) side, 2 acyl side, 3 side chain; on linkers, the order of the positions; unused ones are H or OH. Bridge positions count the residues as written; N and C are the ends. Square brackets hold non-standard residues; d marks the D form. Peptide text beside a SMILES is read from it. ξ: configuration not given here. ξαMeNle(6-ylidene) = CC(CCCC=[*:3])(N[*:1])C(=O)[*:2]; Nle = CCCC[C@H](N)C(=O)O

Experiments:
[1] = tested on: leukemia/lymphoma human cell lines; assay: MTT cell viability assay, leukemia/lymphoma lines; assay type: cell-based; settings: 20 μM, MTT 48 hrs, FIG. 1
Experimental: (§1) Cell viability assays shown in FIGS. 1-32 were performed according to the following protocol. Tumor cell lines were grown in specific serum-supplemented media (growth media) as necessary. A day prior to the initiation of the study, cells were plated at optimal cell density (15,000 to 25,000 cells/well) in 200 μl growth media in microtiter plates. The next day, cells were washed twice in serum-free/phenol red-free RPMI complete media (assay buffer) and a final volume of 100 μl assay buffer was added to each well. Human peripheral blood lymphocytes (hPBLs) were isolated from Buffy coats (San Diego Blood Bank) using Ficoll-Paque gradient separation and plated on the day of the experiment at 25,000 cells/well.
(§2) Peptidomimetic macrocycles were diluted from 1 mM stocks (100% DMSO) in sterile water to prepare 400 μM working solutions. The peptidomimetic macrocycles and controls were then diluted 10 or […] or alternatively serially two-fold diluted in assay buffer in dosing plates to provide concentrations of either 40 and 20 μM or between 1.2 and 40 μM, respectively. […]
(§3) Towards the end of the 4 hour incubation time, 22 μl FBS was added to each well for a total concentration of 10% FBS. […] At the end of the incubation period, MTT assay was performed according to manufacturer's instructions (Sigma, catalog #M2128) and absorbance was measured at 560 nm using Dynex Opsys MR Plate reader. […]

[2] = tested on: NCI-H220; assay: MTT cell viability assay, NCI-H220; assay type: cell-based, human; settings: 20 μM, MTT 48 hrs, FIG. 1
Experimental: as §1, §2, §3

[3] = tested on: A-549; assay: MTT cell viability assay, A-549; assay type: cell-based, human; settings: 20 μM, MTT 48 hrs, FIG. 1
Experimental: as §1, §2, §3

[4] = tested on: H-460; assay: MTT cell viability assay, H-460; assay type: cell-based, human; settings: 20 μM, MTT 48 hrs, FIG. 1
Experimental: as §1, §2, §3

[5] = tested on: MCF7; assay: MTT cell viability assay, MCF7; assay type: cell-based, human; settings: 20 μM, MTT 48 hrs, FIG. 1
Experimental: as §1, §2, §3

[6] = tested on: resting human peripheral lymphocytes (hPBLs); assay: Cell viability of resting hPBLs; assay type: cell-based; settings: FIG. 16
Experimental: as §1, §2, §3

[7] = Melting temperature determination by circular dichroism; assay type: physicochemical; settings: 50 μM in ddH2O, CD at 222 nm, 5-95° C.
Experimental: To assay the effect of macrocycle formation on meltine temperature, peptidomimetic macrocycles or unmodified peptides are dissolved in distilled H2O (e.g. at a final concentration of 50 μM) and the Tm is determined by measuring the change in ellipticity over a temperature range (e.g. 4 to 95° C.) on a spectropolarimeter (e.g., Jasco J-710) using standard parameters (e.g. wavelength 222 nm; step resolution, 0.5 nm; speed, 20 nm/sec; accumulations, 10; response, 1 sec; bandwidth, 1 nm; temperature increase rate: 1° C./min; path length, 0.1 cm).
Lyophilized SP-1 was dissolved in ddH2O to a final concentration of 50 μM. Tm was determined by measuring the circular dichroism (CD) spectra in a Jasco-810 spectropolarimeter at a fixed wavelength of 222 nm between the temperatures of 5-95° C. The following parameters were used for the measurement: data pitch, 0.1° C.; bandwidth, 1 nm and path length, 0.1 cm averaging the signal for 16 seconds.

[8] = target: Bcl-xL (Homo sapiens, UniProt Q07817); assay: Kd, μM | Bcl-xL
From the text: Table printed on a drawing sheet, Figure 27
Head of the field: Kd, μM | Bcl-xL
Where the first naming reader finds the target: head: Kd, μM | Bcl-xL

Chain of Bcl-xL (Q07817 whole entry, looked up): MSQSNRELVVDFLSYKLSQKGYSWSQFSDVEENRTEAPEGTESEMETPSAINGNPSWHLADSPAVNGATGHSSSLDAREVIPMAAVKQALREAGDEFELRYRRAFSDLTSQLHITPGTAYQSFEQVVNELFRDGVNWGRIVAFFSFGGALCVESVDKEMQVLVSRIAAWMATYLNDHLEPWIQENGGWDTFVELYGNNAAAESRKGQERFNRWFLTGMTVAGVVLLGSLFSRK

CCCC[C@H](NC(=O)C1(C)CCCC=CCCCC(C)(NC(=O)[C@H](C)NC(=O)[C@H](CC(C)C)NC(=O)[C@H](Cc2c[nH]cn2)NC(=O)[C@H](CCCNC(=N)N)NC(=O)[C@H](C)NC(=O)[C@@H](NC(=O)[C@H](CC(N)=O)NC(=O)[C@H](CCCNC(=N)N)NC(=O)[C@@H](NC(=O)[C@@H](NC(=O)[C@H](CC(=O)O)NC(C)=O)[C@@H](C)CC)[C@@H](C)CC)[C@@H](C)CC)C(=O)N[C@@H](C(C)C)C(=O)NCC(=O)N[C@@H](CC(=O)O)C(=O)N1)C(=O)N[C@@H](CC(=O)O)C(=O)N[C@@H](CCCNC(=N)N)C(=O)N[C@@H](CO)C(=O)N[C@H](C(N)=O)[C@@H](C)CC (some centres unmarked) [SP-1] (Ac-DIIRNIARHLA[ξαMeNle(6-ylidene)]VGD[ξαMeNle(6-ylidene)][Nle]DRSI-NH2; staple 12-16)
sensitivity of all leukemia/lymphoma lines tested [1]: sensitive | apoptosis of NCI-H220 (SCLC) [2]: induced apoptosis | sensitivity of A-549 (NSCLC) [3]: resistant | sensitivity of H-460 (NSCLC) [4]: resistant | sensitivity of MCF7 (breast cancer) [5]: resistant | programmed cell death of resting hPBLs [6]: does not induce programmed cell death | temperature up to which helical conformation is maintained [7]: up to 64 °C | Kd [8]: < 0.1 µM
